These results are taken from patent US11202751B2, “Whitening cosmetic composition comprising Caragana sinica root extract” (CELLTRION, INC., priority 2015, dated 2021).

Series [1] has as its system tyrosinase, isolated and refined from a mushroom. Nature of the series: Tyrosinase activity inhibition (absorbance at 475 nm, L-tyrosine substrate). The series is classed as biochemical. As to the method:
A tyrosinase is an enzyme that promotes an oxidization process of a substance called tyrosine in vivo to produce a melanin. […] After that, 0.5 ml of a resulting L-tyrosine solution was inserted into a test tube, after which 0.5 ml of a sample fluid of the above Caragana Sinica root extract and the fraction thereof was added thereto, such that the test tube of a resulting mixture was left alone in a 37° C. constant temperature chamber for 10 minutes. […] The reaction was stopped by placing the test tube containing that reaction solution on ice to be rapidly cooled down, after which an absorbance of the resulting product was measured with a spectrophotometer at a wavelength of 475 nm. Control group was one containing 0.5 ml of a buffer solution instead of the Caragana Sinica root extract, and the comparison target was arbutin, well-known as a skin whitening agent. At that time, an inhibition rate of tyrosinase activity (%) was calculated according to the following Mathematical formula 1, wherein results thereof were shown in the following Table 2. [formula] [formula]

Series [2] concerns B16F1 melanin-forming cell. Nature of the series: Melanin production inhibition in B16F1 melanin-forming cells. The series is classed as cell-based. Particulars: Mus musculus, B16-F1, 72 hours, read-out: Inhibition rate of melanin production (%). The text has this:
In order to confirm a whitening effect of the ethanol extract of Caragana Sinica root and the fraction thereof prepared in the above Examples 1 to 5, its effect on inhibiting a production of melanin was confirmed with regard to a B16F1 melanin-forming cell.
Specifically, the B16F1 melanin-forming cells, as a mouse-derived cell line, were obtained from American Type Culture Collection (ATCC) to use. The B16F1 melanin-forming cells were divided into a 6-well plate at a concentration of 2×10^5 per well, after which the cells were attached thereto, thus being divided at such a concentration as not to cause toxicity. […] After this 72-hour cultivation, the cells were taken off by trypsin-EDTA, after which the number of cells was measured, and then cells were collected by centrifugation. A quantification of melanin in cells was performed in such a way that modifying method of Lotan (Cancer Res., 40: 3345-3350, 1980). […] 1N NaOH (10% DMSO) was added to a cell lysate obtained through centrifugation (3,000 rpm, 10 minutes) so as to dissolve the extracted melanin, after which an absorbance of the melanin was measured by microplate reader at 405 nm, and the melanin was quantified to measure an inhibition rate of melanin production (%) of a sample. […]

The subject of series [3] is B16F1 melanin-forming cell. As to the kind of experiment: Inhibition of α-MSH-induced melanin production in B16F1 cells. It counts as cell-based, mouse. Particulars: for IC50: B16F1, 70 to 74 hours. As for the experimental part:
Specifically, the B16F1 melanin-forming cells, as a mouse-derived cell line, were obtained from American Type Culture Collection (ATCC) to use. The B16F1 melanin-forming cells were divided into a 6-well plate at a concentration of 2×10^5 per well, after which the cells were attached thereto, thus being divided at such a concentration as not to cause toxicity. After that, the ethanol extract of Caragana Sinica root and the fraction thereof obtained from the above Examples 1 to 5 were treated at each concentration, and then being cultured for 72 hours. After this 72-hour cultivation, the cells were taken off by trypsin-EDTA, after which the number of cells was measured, and then cells were collected by centrifugation. A quantification of melanin in cells was performed in such a way that modifying method of Lotan (Cancer Res., 40: 3345-3350, 1980). A cell pallet was washed once with PBS, after which 1 ml of a homogenization buffer solution (50 mM sodium phosphate, pH6.8, 1% Triton X-100, 2 mM PMSF) was added thereto and swirled for 5 minutes to crush the cells. 1N NaOH (10% DMSO) was added to a cell lysate obtained through centrifugation (3,000 rpm, 10 minutes) so as to dissolve the extracted melanin, after which an absorbance of the melanin was measured by microplate reader at 405 nm, and the melanin was quantified to measure an inhibition rate of melanin production (%) of a sample. The inhibition rate of melanin production (%) of the B16F1 melanin-forming cell was calculated according to the following [Mathematical formula 2], wherein results thereof were indicated at Table 3.
In order to confirm whitening effect of α-viniferin isolated from the fraction of Caragana Sinica root of the above Example 4, its effect on inhibiting a production of melanin was confirmed with regard to a B16F1 melanin-forming cell.
Specifically, the α-viniferin isolated from the ethyl acetate fraction of the ethanol extract of Caragana Sinica root obtained from the above Example 4 or arbutin, and α-MSH, a stimulant of melanin production, were treated at the same time, after which an amount of melanin was measured in 70 to 74 hours later as describe in the above Example 2-2.

Series [4] in a line: Stability of isolated α-viniferin at 50° C. (HPLC content). The series is classed as physicochemical. The conditions noted are these: for content by HPLC / content relative to initial: 50° C. As for the experimental part: In order to confirm a stability of α-viniferin, the α-viniferin isolated from the ethyl acetate fraction of the ethanol extract of Caragana Sinica root obtained from the above Experimental Example 1 was stored under a condition of 50° C. for 2 weeks, after which content changes thereof were observed through an HPLC analysis by the same method of the above Experimental Example 1. A control group was kobophenol A isolated from the Caragana Sinica root extract, which was stored under the same condition with that of the α-viniferin, after which content changes thereof were observed by the same method.

On to `OC[C@H]1O[C@@H](Oc2ccc(O)cc2)[C@H](O)[C@@H](O)[C@@H]1O` [Arbutin, arbutin], for which the “Inhibition rate of tyrosinase activity (%)” value in series [1] (sample concentration 0.05%) turned out to be 21.2%; in series [1] (sample concentration 0.1%) it was 38.4%; in series [1] (sample concentration 0.2%) it was 78.7%. The inhibition at 100 µg/mL in series [2] (100 μg/ml) was 63.5%. Besides, in series [2] (200 μg/ml), the inhibition at 200 µg/mL is 75.7%. Moreover, the inhibition at 100 µM in series [3] (Mus musculus, B16-F1, 100 μM, read-out: inhibition rate of melanin production induced by α-MSH) worked out at 13%. The inhibition at 200 µM in series [3] (Mus musculus, B16-F1, 200 μM, read-out: inhibition rate of melanin production induced by α-MSH) turned out to be 44%. Moreover, in series [3] (Mus musculus, B16-F1, 400 μM, read-out: inhibition rate of melanin production induced by α-MSH), the inhibition at 400 µM is 73%. In addition, the IC50 in series [3] (Mus musculus, B16-F1) came to 242 µM.

For the compound kobophenol A, the “content by HPLC” value in series [4] (1 week) stood at 115.6 ppm; in series [4] (2 weeks) it was 103.6 ppm; in series [4] (Initial), 121.4 ppm. Moreover, the “content relative to initial” value in series [4] (1 week) worked out at 95.2%; in series [4] (2 weeks) it was 85.3%.

For `Oc1ccc(C2Oc3cc(O)cc4c3[C@@H]2c2cc(O)cc3c2C(c2cc(O)cc5c2[C@@H]4[C@H](c2ccc(O)cc2)O5)[C@H](c2ccc(O)cc2)O3)cc1` (stereo partly drawn) [α-viniferin], the inhibition at 4 µM in series [3] (Mus musculus, B16-F1, 4 μM, read-out: inhibition rate of melanin production induced by α-MSH) is 8%. The inhibition at 6 µM in series [3] (Mus musculus, B16-F1, 6 μM, read-out: inhibition rate of melanin production induced by α-MSH) stood at 21%. Further, the inhibition at 8 µM in series [3] (Mus musculus, B16-F1, 8 μM, read-out: inhibition rate of melanin production induced by α-MSH) is 63%. In addition, the IC50 in series [3] (Mus musculus, B16-F1) amounted to 7 µM. For the same compound, in series [3] (ratio of IC50 values vs arbutin), the “whitening effect on α-MSH-induced melanin production, times higher than that of arbutin” value is listed as “about 35 times”. Besides, the “content change at high temperature (in words)” value in series [4] (50° C. for 2 weeks) is listed as “not decreased”. The “content by HPLC” value in series [4] (1 week) came out at 249.60 ppm; in series [4] (2 weeks), 253.45 ppm; in series [4] (Initial), 252.8 ppm. Besides, the results for the “content relative to initial” value in series [4] (1 week) and in series [4] (2 weeks) were 98.7% and 100.3%, respectively.
